Results from the kinase profiling compilation of Christmann-Franck et al. (2016).

Legend:
[1] = biological target: PIK3CA PIK3R1 (human) (UniProt P27986+P42336); test: ADP detection assay-Luminescence; settings: ATP 1000 µM
[2] = biological target: PIK3CG (human) (UniProt P48736); test: ADP detection assay-Luminescence
[3] = biological target: SPHK1 (human) (UniProt Q9NYA1); test: ADP detection assay-Luminescence; settings: ATP 10 µM
[4] = biological target: PIK3CB PIK3R1 (human) (UniProt P27986+P42338); test: ADP detection assay-Luminescence; settings: ATP 1000 µM
[5] = biological target: PIP4K2A (human) (UniProt P48426); test: ADP detection assay-Luminescence
[6] = biological target: SPHK2 (human) (UniProt Q9NRA0); test: ADP detection assay-Luminescence; settings: ATP 1 µM
[7] = biological target: DGKB (human) (UniProt Q9Y6T7); test: ADP detection assay-Luminescence
[8] = biological target: CHKA (human) (UniProt P35790); test: ADP detection assay-Luminescence; settings: ATP 1 µM
[9] = biological target: MAPK13 (human) (UniProt O15264); test: radiometric filter-binding kinase assay; settings: ATP 5 µM
Chain of MAPK13 (human) (O15264 whole entry, looked up): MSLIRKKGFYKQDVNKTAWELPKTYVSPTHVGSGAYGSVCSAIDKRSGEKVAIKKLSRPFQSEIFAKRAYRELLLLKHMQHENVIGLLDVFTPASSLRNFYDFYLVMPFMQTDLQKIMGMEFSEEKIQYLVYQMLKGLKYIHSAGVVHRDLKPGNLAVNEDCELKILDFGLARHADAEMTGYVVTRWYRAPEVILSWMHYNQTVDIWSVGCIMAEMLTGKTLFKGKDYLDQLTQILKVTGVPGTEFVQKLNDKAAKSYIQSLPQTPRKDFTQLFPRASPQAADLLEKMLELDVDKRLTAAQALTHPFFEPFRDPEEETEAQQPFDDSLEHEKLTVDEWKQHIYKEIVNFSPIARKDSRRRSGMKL

[10] = biological target: MELK (human) (UniProt Q14680); test: radiometric filter-binding kinase assay; settings: ATP 50 µM
Chain of MELK (human) (Q14680 whole entry, looked up): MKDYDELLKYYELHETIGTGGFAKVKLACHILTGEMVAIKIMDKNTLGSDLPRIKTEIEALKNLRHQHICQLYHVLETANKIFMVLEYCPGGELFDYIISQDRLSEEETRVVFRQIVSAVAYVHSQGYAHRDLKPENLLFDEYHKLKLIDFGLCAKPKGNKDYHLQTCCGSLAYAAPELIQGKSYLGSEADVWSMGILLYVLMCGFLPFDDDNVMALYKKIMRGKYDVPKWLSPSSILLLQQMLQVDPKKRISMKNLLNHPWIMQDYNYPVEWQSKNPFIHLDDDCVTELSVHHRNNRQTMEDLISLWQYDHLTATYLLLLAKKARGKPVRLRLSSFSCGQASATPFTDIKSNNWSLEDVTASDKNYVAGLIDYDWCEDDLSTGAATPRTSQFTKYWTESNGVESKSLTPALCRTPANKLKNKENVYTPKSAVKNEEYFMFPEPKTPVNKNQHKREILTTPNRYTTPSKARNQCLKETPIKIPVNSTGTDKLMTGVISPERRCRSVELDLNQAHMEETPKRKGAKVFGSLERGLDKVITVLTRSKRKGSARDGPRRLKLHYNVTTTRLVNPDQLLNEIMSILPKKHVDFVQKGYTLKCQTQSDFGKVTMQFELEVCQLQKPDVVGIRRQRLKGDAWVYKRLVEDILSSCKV

[11] = biological target: MAPK12 (human) (UniProt P53778); test: radiometric filter-binding kinase assay; settings: ATP 5 µM
[12] = biological target: MAPK9 (human) (UniProt P45984); test: radiometric filter-binding kinase assay; settings: ATP 20 µM
Chain of MAPK9 (human) (P45984 whole entry, looked up): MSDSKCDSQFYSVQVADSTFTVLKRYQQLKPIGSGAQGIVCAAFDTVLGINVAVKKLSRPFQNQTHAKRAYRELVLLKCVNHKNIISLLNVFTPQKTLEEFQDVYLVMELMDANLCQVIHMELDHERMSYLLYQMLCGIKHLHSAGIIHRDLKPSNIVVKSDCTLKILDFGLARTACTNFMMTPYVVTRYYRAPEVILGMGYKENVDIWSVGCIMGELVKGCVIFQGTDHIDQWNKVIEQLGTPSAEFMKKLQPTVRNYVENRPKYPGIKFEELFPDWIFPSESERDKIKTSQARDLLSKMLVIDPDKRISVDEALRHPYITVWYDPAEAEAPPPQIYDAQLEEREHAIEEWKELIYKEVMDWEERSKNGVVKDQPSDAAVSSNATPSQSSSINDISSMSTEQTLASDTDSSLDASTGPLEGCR

[13] = biological target: MAPK14 (human) (UniProt Q16539); test: radiometric filter-binding kinase assay; settings: ATP 50 µM
[14] = biological target: RPS6KA1 KD1 KD2 (human) (UniProt Q15418); test: radiometric filter-binding kinase assay; settings: ATP 100 µM
Chain of RPS6KA1 KD1 KD2 (human) (Q15418 whole entry, looked up): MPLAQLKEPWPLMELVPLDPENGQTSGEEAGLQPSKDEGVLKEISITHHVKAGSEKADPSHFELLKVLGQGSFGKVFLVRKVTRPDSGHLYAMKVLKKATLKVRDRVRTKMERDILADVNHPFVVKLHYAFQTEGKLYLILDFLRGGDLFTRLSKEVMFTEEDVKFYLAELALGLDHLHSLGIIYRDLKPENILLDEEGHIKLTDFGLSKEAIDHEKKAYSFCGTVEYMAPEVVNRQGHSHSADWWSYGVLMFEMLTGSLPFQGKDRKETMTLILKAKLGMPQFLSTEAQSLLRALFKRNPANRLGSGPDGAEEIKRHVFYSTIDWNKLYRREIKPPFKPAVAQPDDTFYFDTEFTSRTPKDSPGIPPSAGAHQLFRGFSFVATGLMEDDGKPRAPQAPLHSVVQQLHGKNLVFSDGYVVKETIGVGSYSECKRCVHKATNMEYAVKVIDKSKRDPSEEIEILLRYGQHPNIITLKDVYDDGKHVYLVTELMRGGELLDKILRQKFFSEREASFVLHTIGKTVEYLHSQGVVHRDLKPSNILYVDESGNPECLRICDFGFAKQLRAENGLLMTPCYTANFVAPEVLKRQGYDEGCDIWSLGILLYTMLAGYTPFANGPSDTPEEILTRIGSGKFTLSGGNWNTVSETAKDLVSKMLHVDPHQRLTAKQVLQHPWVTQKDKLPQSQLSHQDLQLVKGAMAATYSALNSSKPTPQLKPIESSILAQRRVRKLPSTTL

[15] = biological target: PAK6 (human) (UniProt Q9NQU5); test: radiometric filter-binding kinase assay; settings: ATP 20 µM
Chain of PAK6 (human) (Q9NQU5 whole entry, looked up): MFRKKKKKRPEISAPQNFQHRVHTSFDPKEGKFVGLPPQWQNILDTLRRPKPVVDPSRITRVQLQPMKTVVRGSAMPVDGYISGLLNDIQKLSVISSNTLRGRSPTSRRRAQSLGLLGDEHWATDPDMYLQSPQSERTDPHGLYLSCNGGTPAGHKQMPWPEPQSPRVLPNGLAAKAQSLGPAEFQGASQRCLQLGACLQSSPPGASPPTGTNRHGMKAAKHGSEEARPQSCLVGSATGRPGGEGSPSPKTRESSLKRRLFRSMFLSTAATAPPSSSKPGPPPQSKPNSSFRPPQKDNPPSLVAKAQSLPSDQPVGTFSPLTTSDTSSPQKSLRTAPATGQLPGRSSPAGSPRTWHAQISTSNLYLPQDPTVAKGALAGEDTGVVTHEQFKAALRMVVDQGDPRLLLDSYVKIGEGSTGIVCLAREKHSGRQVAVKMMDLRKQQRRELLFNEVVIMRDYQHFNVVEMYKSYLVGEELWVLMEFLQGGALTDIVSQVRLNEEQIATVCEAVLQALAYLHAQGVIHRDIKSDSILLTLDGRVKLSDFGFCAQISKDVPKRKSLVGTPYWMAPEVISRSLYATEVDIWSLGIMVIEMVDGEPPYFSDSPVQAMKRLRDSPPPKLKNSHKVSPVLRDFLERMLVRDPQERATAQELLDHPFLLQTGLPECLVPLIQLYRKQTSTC

[16] = biological target: BRSK2 (human) (UniProt Q8IWQ3); test: radiometric filter-binding kinase assay; settings: ATP 50 µM
[17] = biological target: PIM2 (human) (UniProt Q9P1W9); test: radiometric filter-binding kinase assay; settings: ATP 5 µM
[18] = biological target: DYRK1A (human) (UniProt Q13627); test: radiometric filter-binding kinase assay; settings: ATP 50 µM
[19] = biological target: PRKCZ (human) (UniProt Q05513); test: radiometric filter-binding kinase assay; settings: ATP 5 µM
Chain of PRKCZ (human) (Q05513 whole entry, looked up): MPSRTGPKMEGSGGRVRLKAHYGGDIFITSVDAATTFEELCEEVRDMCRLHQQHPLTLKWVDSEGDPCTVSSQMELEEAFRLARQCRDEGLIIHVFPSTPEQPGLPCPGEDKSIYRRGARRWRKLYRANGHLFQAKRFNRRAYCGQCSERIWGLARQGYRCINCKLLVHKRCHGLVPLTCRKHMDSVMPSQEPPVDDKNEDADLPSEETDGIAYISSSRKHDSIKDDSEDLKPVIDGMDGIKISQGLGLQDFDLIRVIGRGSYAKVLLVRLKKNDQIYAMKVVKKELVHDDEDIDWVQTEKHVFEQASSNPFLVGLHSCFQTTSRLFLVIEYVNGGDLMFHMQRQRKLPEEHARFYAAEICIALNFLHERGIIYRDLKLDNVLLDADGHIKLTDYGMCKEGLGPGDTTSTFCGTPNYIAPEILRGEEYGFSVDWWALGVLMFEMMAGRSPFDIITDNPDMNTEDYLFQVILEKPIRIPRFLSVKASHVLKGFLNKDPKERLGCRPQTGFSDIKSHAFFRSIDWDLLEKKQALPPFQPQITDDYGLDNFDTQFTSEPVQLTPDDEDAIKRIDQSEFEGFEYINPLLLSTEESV

[20] = system: ROCK2 (rat); test: radiometric filter-binding kinase assay; settings: ATP 20 µM, accession and sequence are those of the human protein
[21] = biological target: BTK (human) (UniProt Q06187); test: radiometric filter-binding kinase assay; settings: ATP 50 µM
Chain of BTK (human) (Q06187 whole entry, looked up): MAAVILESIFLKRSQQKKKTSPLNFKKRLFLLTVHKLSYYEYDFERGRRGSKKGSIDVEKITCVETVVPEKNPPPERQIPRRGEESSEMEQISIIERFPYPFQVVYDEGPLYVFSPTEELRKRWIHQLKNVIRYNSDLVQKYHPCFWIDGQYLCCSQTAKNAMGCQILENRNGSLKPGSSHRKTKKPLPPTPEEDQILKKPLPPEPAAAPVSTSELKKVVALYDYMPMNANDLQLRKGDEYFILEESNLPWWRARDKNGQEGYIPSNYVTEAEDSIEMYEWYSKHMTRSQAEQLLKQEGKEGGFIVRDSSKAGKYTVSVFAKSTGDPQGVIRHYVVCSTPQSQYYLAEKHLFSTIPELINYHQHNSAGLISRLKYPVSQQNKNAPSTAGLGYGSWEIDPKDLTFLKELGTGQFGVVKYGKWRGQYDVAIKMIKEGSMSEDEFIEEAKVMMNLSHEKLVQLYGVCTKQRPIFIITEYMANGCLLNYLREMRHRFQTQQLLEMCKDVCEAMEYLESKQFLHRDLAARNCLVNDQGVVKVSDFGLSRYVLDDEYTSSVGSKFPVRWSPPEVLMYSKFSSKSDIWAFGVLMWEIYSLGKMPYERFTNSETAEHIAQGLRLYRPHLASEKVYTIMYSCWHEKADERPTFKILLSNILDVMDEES

[22] = biological target: CAMKK2 (human) (UniProt Q96RR4); test: radiometric filter-binding kinase assay; settings: ATP 20 µM
[23] = biological target: NEK2 (human) (UniProt P51955); test: radiometric filter-binding kinase assay; settings: ATP 50 µM
[24] = biological target: AURKB (human) (UniProt Q96GD4); test: radiometric filter-binding kinase assay; settings: ATP 20 µM
Chain of AURKB (human) (Q96GD4 whole entry, looked up): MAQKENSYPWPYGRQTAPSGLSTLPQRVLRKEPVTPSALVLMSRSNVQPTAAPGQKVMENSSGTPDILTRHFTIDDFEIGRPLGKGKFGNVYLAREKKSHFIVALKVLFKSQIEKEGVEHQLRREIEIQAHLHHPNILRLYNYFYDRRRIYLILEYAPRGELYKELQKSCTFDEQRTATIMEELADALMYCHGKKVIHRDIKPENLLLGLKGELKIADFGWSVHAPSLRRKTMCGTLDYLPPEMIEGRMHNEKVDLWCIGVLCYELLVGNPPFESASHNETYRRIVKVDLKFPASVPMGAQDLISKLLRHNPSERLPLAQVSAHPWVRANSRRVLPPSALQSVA

[25] = biological target: MAP2K1 (human) (UniProt Q02750); test: radiometric filter-binding kinase assay; settings: ATP 5 µM
Chain of MAP2K1 (human) (Q02750 whole entry, looked up): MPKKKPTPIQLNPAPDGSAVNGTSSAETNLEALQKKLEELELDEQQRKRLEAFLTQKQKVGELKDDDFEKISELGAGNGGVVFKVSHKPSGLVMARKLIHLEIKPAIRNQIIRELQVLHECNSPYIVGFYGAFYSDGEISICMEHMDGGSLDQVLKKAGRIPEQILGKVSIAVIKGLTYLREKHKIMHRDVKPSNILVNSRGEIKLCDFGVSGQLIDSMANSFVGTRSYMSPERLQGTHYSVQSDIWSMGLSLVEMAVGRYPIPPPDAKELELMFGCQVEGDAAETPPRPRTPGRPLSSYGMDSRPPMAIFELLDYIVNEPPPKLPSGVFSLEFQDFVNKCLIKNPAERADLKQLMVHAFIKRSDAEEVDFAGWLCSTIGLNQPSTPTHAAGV

[26] = biological target: MAPK11 (human) (UniProt Q15759); test: radiometric filter-binding kinase assay; settings: ATP 20 µM
[27] = biological target: IGF1R (human) (UniProt P08069); test: radiometric filter-binding kinase assay; settings: ATP 5 µM
[28] = biological target: MKNK1 (human) (UniProt Q9BUB5); test: radiometric filter-binding kinase assay; settings: ATP 50 µM
[29] = biological target: YES1 (human) (UniProt P07947); test: radiometric filter-binding kinase assay; settings: ATP 20 µM

residual activity ([1]; compound 1.0 µM): 107%
residual activity ([1]; compound 10.0 µM): 117%
residual activity ([2]; compound 1.0 µM): 101%
residual activity ([2]; compound 10.0 µM): 102%
residual activity ([3]; compound 1.0 µM): 99%
residual activity ([3]; compound 10.0 µM): 103%
residual activity ([4]; compound 1.0 µM): 103%
residual activity ([4]; compound 10.0 µM): 115%
residual activity ([5]; compound 1.0 µM): 101%
residual activity ([5]; compound 10.0 µM): 100%
residual activity ([6]; compound 1.0 µM): 100%
residual activity ([6]; compound 10.0 µM): 98%
residual activity ([7]; compound 1.0 µM): 98%
residual activity ([7]; compound 10.0 µM): 99%
residual activity ([8]; compound 1.0 µM): 98%
residual activity ([8]; compound 10.0 µM): 94%
residual activity ([9]; compound 0.1 µM): 89%
residual activity ([9]; compound 1.0 µM): 82%
residual activity ([9]; compound 10.0 µM): 91%
residual activity ([10]; compound 0.1 µM): 94%
residual activity ([10]; compound 1.0 µM): 101%
residual activity ([10]; compound 10.0 µM): 87%
residual activity ([11]; compound 0.1 µM): 107%
residual activity ([11]; compound 1.0 µM): 102%
residual activity ([11]; compound 10.0 µM): 103%
residual activity ([12]; compound 0.1 µM): 92%
residual activity ([12]; compound 1.0 µM): 93%
residual activity ([12]; compound 10.0 µM): 98%
residual activity ([13]; compound 0.1 µM): 86%
residual activity ([13]; compound 1.0 µM): 79%
residual activity ([13]; compound 10.0 µM): 86%
IC50 [14]: 4.7 µM
residual activity ([14]; compound 0.1 µM): 85%
residual activity ([14]; compound 1.0 µM): 83%
residual activity ([14]; compound 10.0 µM): 33%
residual activity ([15]; compound 0.1 µM): 99%
residual activity ([15]; compound 1.0 µM): 83%
residual activity ([15]; compound 10.0 µM): 86%
residual activity ([16]; compound 0.1 µM): 88%
residual activity ([16]; compound 1.0 µM): 84%
residual activity ([16]; compound 10.0 µM): 83%
residual activity ([17]; compound 0.1 µM): 90%
residual activity ([17]; compound 1.0 µM): 90%
residual activity ([17]; compound 10.0 µM): 100%
residual activity ([18]; compound 0.1 µM): 99%
residual activity ([18]; compound 1.0 µM): 94%
residual activity ([18]; compound 10.0 µM): 85%
residual activity ([19]; compound 0.1 µM): 78%
residual activity ([19]; compound 1.0 µM): 75%
residual activity ([19]; compound 10.0 µM): 70%
residual activity ([20]; compound 0.1 µM): 98%
residual activity ([20]; compound 1.0 µM): 91%
residual activity ([20]; compound 10.0 µM): 58%
residual activity ([21]; compound 0.1 µM): 83%
residual activity ([21]; compound 1.0 µM): 87%
residual activity ([21]; compound 10.0 µM): 92%
residual activity ([22]; compound 0.1 µM): 99%
residual activity ([22]; compound 1.0 µM): 98%
residual activity ([22]; compound 10.0 µM): 80%
residual activity ([23]; compound 0.1 µM): 95%
residual activity ([23]; compound 1.0 µM): 94%
residual activity ([23]; compound 10.0 µM): 91%
residual activity ([24]; compound 0.1 µM): 89%
residual activity ([24]; compound 1.0 µM): 87%
residual activity ([24]; compound 10.0 µM): 49%
residual activity ([25]; compound 0.1 µM): 117%
residual activity ([25]; compound 1.0 µM): 104%
residual activity ([25]; compound 10.0 µM): 96%
residual activity ([26]; compound 0.1 µM): 88%
residual activity ([26]; compound 1.0 µM): 89%
residual activity ([26]; compound 10.0 µM): 97%
residual activity ([27]; compound 0.1 µM): 72%
residual activity ([27]; compound 1.0 µM): 95%
residual activity ([27]; compound 10.0 µM): 82%
residual activity ([28]; compound 0.1 µM): 101%
residual activity ([28]; compound 1.0 µM): 91%
residual activity ([28]; compound 10.0 µM): 79%
residual activity ([29]; compound 0.1 µM): 98%
residual activity ([29]; compound 1.0 µM): 84%
residual activity ([29]; compound 10.0 µM): 76%
Structure (SMILES): CCc1cncnc1N1CCN(Cc2nc3cc(C(F)(F)F)ccc3[nH]2)CC1
